{"source": "paper PMC12446476", "about": "(Nature Communications, 2025)", "tested_on": "N. gonorrhoeae", "experiment": "MIC determination, Etest", "type": "cell-based, Neisseria gonorrhoeae", "conditions": "for MIC: Neisseria gonorrhoeae, comparator antibiotics, read-out: Minimum inhibitory concentration", "text": "The 2024 WHO N. gonorrhoeae reference strains were used for quality control. Only whole MIC doubling dilutions are reported. Clinical breakpoints or the epidemiological cutoff (ECOFF, to indicate azithromycin resistance) from EUCAST (v14.0, https://www.eucast.org/clinical_breakpoints) were used to classify isolates as antimicrobial susceptible or resistant. […] Two times the standard inoculum defined by CLSI was used to establish consistent growth in untreated control samples for some strains. In vitro time-kill assays were performed according to CLSI guidelines[65] using Columbia Broth (BD Difco) supplemented with 1% IsoVitaleX Enrichment (BD). Viable bacterial counts were generated by plating 10-fold serially diluted samples on GC agar plates containing 1% IsoVitaleX Enrichment (BD).", "note": "Read-outs that look alike come from different tables or passages of the source.", "data": [{"smiles": "CC[C@H]1OC(=O)[C@H](C)[C@@H](O[C@H]2C[C@@](C)(OC)[C@@H](O)[C@H](C)O2)[C@H](C)[C@@H](O[C@@H]2O[C@H](C)C[C@H](N(C)C)[C@H]2O)[C@](C)(O)C[C@@H](C)CN(C)[C@H](C)[C@@H](O)[C@]1(C)O", "note": "[Azithromycin]", "values": [{"measurement": "MIC", "setting": "clinical N. gonorrhoeae isolate 50, Sweden 2023", "result": 0.25, "unit": "µg/mL"}, {"measurement": "MIC", "setting": "clinical N. gonorrhoeae isolate 51, Sweden 2023", "result": 0.064, "unit": "µg/mL"}, {"measurement": "MIC", "setting": "clinical N. gonorrhoeae isolate 52, Sweden 2023", "result": 0.25, "unit": "µg/mL"}, {"measurement": "MIC", "setting": "clinical N. gonorrhoeae isolate 53, Sweden 2023", "result": 0.125, "unit": "µg/mL"}, {"measurement": "MIC", "setting": "clinical N. gonorrhoeae isolate 54, Sweden 2023", "result": 0.5, "unit": "µg/mL"}, {"measurement": "MIC", "setting": "clinical N. gonorrhoeae isolate 55, Sweden 2023", "result": 0.5, "unit": "µg/mL"}, {"measurement": "MIC", "setting": "clinical N. gonorrhoeae isolate 56, Sweden 2023", "result": 0.25, "unit": "µg/mL"}, {"measurement": "MIC", "setting": "clinical N. gonorrhoeae isolate 57, Sweden 2023", "result": 0.064, "unit": "µg/mL"}, {"measurement": "MIC", "setting": "clinical N. gonorrhoeae isolate 58, Sweden 2023", "result": 0.125, "unit": "µg/mL"}, {"measurement": "MIC", "setting": "clinical N. gonorrhoeae isolate 59, Sweden 2023", "result": 0.064, "unit": "µg/mL"}, {"measurement": "MIC", "setting": "clinical N. gonorrhoeae isolate 60, Sweden 2023", "result": 0.5, "unit": "µg/mL"}, {"measurement": "MIC", "setting": "clinical N. gonorrhoeae isolate 61, Sweden 2023", "result": 0.125, "unit": "µg/mL"}, {"measurement": "MIC", "setting": "clinical N. gonorrhoeae isolate 62, Sweden 2023", "result": 0.016, "unit": "µg/mL"}, {"measurement": "MIC", "setting": "clinical N. gonorrhoeae isolate 63, Sweden 2023", "result": 0.25, "unit": "µg/mL"}, {"measurement": "MIC", "setting": "clinical N. gonorrhoeae isolate 64, Sweden 2023", "result": 0.5, "unit": "µg/mL"}, {"measurement": "MIC", "setting": "clinical N. gonorrhoeae isolate 65, Sweden 2023", "result": 0.064, "unit": "µg/mL"}, {"measurement": "MIC", "setting": "clinical N. gonorrhoeae isolate 66, Sweden 2023", "result": 0.25, "unit": "µg/mL"}, {"measurement": "MIC", "setting": "clinical N. gonorrhoeae isolate 67, Sweden 2023", "result": 0.25, "unit": "µg/mL"}, {"measurement": "MIC", "setting": "clinical N. gonorrhoeae isolate 68, Sweden 2023", "result": 0.064, "unit": "µg/mL"}, {"measurement": "MIC", "setting": "clinical N. gonorrhoeae isolate 69, Sweden 2023", "result": 0.25, "unit": "µg/mL"}, {"measurement": "MIC", "setting": "clinical N. gonorrhoeae isolate 70, Sweden 2023", "result": 0.125, "unit": "µg/mL"}, {"measurement": "MIC", "setting": "clinical N. gonorrhoeae isolate 71, Sweden 2023", "result": 2, "unit": "µg/mL"}, {"measurement": "MIC", "setting": "clinical N. gonorrhoeae isolate 72, Sweden 2023", "result": 0.125, "unit": "µg/mL"}, {"measurement": "MIC", "setting": "clinical N. gonorrhoeae isolate 73, Sweden 2023", "result": 0.064, "unit": "µg/mL"}, {"measurement": "MIC", "setting": "clinical N. gonorrhoeae isolate 74, Sweden 2023", "result": 0.5, "unit": "µg/mL"}, {"measurement": "MIC", "setting": "clinical N. gonorrhoeae isolate 75, Sweden 2023", "result": 0.5, "unit": "µg/mL"}, {"measurement": "MIC", "setting": "clinical N. gonorrhoeae isolate 76, Sweden 2023", "result": 0.125, "unit": "µg/mL"}, {"measurement": "MIC", "setting": "clinical N. gonorrhoeae isolate 77, Sweden 2023", "result": 0.064, "unit": "µg/mL"}, {"measurement": "MIC", "setting": "clinical N. gonorrhoeae isolate 78, Sweden 2023", "result": 0.25, "unit": "µg/mL"}, {"measurement": "MIC", "setting": "clinical N. gonorrhoeae isolate 79, Sweden 2023", "result": 0.064, "unit": "µg/mL"}, {"measurement": "MIC", "setting": "clinical N. gonorrhoeae isolate 80, Sweden 2023", "result": 0.125, "unit": "µg/mL"}, {"measurement": "MIC", "setting": "clinical N. gonorrhoeae isolate 81, Sweden 2023", "result": 0.25, "unit": "µg/mL"}, {"measurement": "MIC", "setting": "clinical N. gonorrhoeae isolate 82, Sweden 2023", "result": 2, "unit": "µg/mL"}, {"measurement": "MIC", "setting": "clinical N. gonorrhoeae isolate 83, Sweden 2023", "result": 0.032, "unit": "µg/mL"}, {"measurement": "MIC", "setting": "clinical N. gonorrhoeae isolate 84, Sweden 2023", "result": 0.5, "unit": "µg/mL"}, {"measurement": "MIC", "setting": "clinical N. gonorrhoeae isolate 85, Sweden 2023", "result": 0.125, "unit": "µg/mL"}, {"measurement": "MIC", "setting": "clinical N. gonorrhoeae isolate 86, Sweden 2023", "result": 0.125, "unit": "µg/mL"}, {"measurement": "MIC", "setting": "clinical N. gonorrhoeae isolate 87, Sweden 2023", "result": 0.125, "unit": "µg/mL"}, {"measurement": "MIC", "setting": "clinical N. gonorrhoeae isolate 88, Sweden 2023", "result": 0.5, "unit": "µg/mL"}, {"measurement": "MIC", "setting": "clinical N. gonorrhoeae isolate 89, Sweden 2023", "result": 0.25, "unit": "µg/mL"}, {"measurement": "MIC", "setting": "clinical N. gonorrhoeae isolate 90, Sweden 2023", "result": 0.125, "unit": "µg/mL"}, {"measurement": "MIC", "setting": "clinical N. gonorrhoeae isolate 91, Sweden 2023", "result": 0.032, "unit": "µg/mL"}, {"measurement": "MIC", "setting": "clinical N. gonorrhoeae isolate 92, Sweden 2023", "result": 0.5, "unit": "µg/mL"}, {"measurement": "MIC", "setting": "clinical N. gonorrhoeae isolate 93, Sweden 2023", "result": 0.032, "unit": "µg/mL"}, {"measurement": "MIC", "setting": "clinical N. gonorrhoeae isolate 94, Sweden 2023", "result": 0.032, "unit": "µg/mL"}, {"measurement": "MIC", "setting": "clinical N. gonorrhoeae isolate 95, Sweden 2023", "result": 0.5, "unit": "µg/mL"}, {"measurement": "MIC", "setting": "clinical N. gonorrhoeae isolate 96, Sweden 2023", "result": 0.25, "unit": "µg/mL"}, {"measurement": "MIC", "setting": "clinical N. gonorrhoeae isolate 97, Sweden 2023", "result": 0.25, "unit": "µg/mL"}, {"measurement": "MIC", "setting": "clinical N. gonorrhoeae isolate 98, Sweden 2023", "result": 0.064, "unit": "µg/mL"}, {"measurement": "MIC", "setting": "clinical N. gonorrhoeae isolate 99, Sweden 2023", "result": 0.064, "unit": "µg/mL"}, {"measurement": "MIC", "setting": "clinical N. gonorrhoeae isolate 100, Sweden 2023", "result": 0.064, "unit": "µg/mL"}, {"measurement": "AMR phenotype (susceptibility category, EUCAST)", "setting": "WHO F", "result": "S"}, {"measurement": "AMR phenotype (susceptibility category, EUCAST)", "setting": "WHO H", "result": "S"}, {"measurement": "AMR phenotype (susceptibility category, EUCAST)", "setting": "WHO K", "result": "S"}, {"measurement": "AMR phenotype (susceptibility category, EUCAST)", "setting": "WHO L", "result": "S"}, {"measurement": "AMR phenotype (susceptibility category, EUCAST)", "setting": "WHO M", "result": "S"}, {"measurement": "AMR phenotype (susceptibility category, EUCAST)", "setting": "WHO O", "result": "S"}, {"measurement": "AMR phenotype (susceptibility category, EUCAST)", "setting": "WHO P", "result": "R"}, {"measurement": "AMR phenotype (susceptibility category, EUCAST)", "setting": "WHO Q", "result": "R"}, {"measurement": "AMR phenotype (susceptibility category, EUCAST)", "setting": "WHO R", "result": "S"}, {"measurement": "AMR phenotype (susceptibility category, EUCAST)", "setting": "WHO S2", "result": "R"}, {"measurement": "AMR phenotype (susceptibility category, EUCAST)", "setting": "WHO U", "result": "R"}, {"measurement": "AMR phenotype (susceptibility category, EUCAST)", "setting": "WHO V", "result": "R"}, {"measurement": "AMR phenotype (susceptibility category, EUCAST)", "setting": "WHO X", "result": "S"}, {"measurement": "AMR phenotype (susceptibility category, EUCAST)", "setting": "WHO Y", "result": "S"}, {"measurement": "AMR phenotype (susceptibility category, EUCAST)", "setting": "WHO Z", "result": "S"}]}]}
